Experimental findings from patent publication US8779092B2, “Metastasis-specific peptides and their diagnostic and therapeutic applications” (Universita Degli Studi di Torino, priority 2006, dated 2014) are described below.

The experiment relates to primary cells of hepatic metastasis. The experiment can be described thus: Binding experiments on primary cells. On the set-up: species or system human. The settings on record: for binding of phage clone to primary hepatic metastasis cells, summary over samples: all tested patient samples; for binding of phage clone to primary hepatic metastasis cells: compared to normal liver of the same patient. Here is the method:
Samples were processed immediately after surgical removal, in order to disaggregate the tissues and extract single cells on which to perform the experiments. All the manipulations were performed under laminar flux in sterility. Samples were chopped with a scalpel in a small volume of PBS. The suspension, collected in PBS, was centrifuged for 3 minutes at 100 rpm at room temperature and the pellet was resuspended in 5 ml of collagenase (0.25% weight/volume in DMEM). The digestion of the tissue fragments was done incubating this suspension for 2 hours at 37° C. while shaking. The sample was again centrifuged, to eliminate all the particulate under the cell size (lipid aggregates, cell portions) or also smaller cells, of hematopoietic origin. Pellet was washed twice in PBS. Cells were filtered on filters with a diameter of 45 μm, counted in Burker chamber and resuspended at a concentration of 10^6/ml in DMEM/FCS/HEPES.
These assays were performed with an Input of 10^9 TU of each clone, on cells from the hepatic metastasis cell line (target) and on cells from normal liver (negative control). The Output of these experiments was normalized on binding to an insertless phage, fd-tet, giving a measure of the unspecific interaction due to the phage itself. The binding increase was evaluated as ratio between normalized Output of the target and normalized Output of the negative control. All the experiments were repeated at least 3 times, when possible for material availability.
To evaluate if the selected inserts were specific for ubiquitous surface determinants in human hepatic metastases, the 7 selected clones were tested on primary cells of hepatic metastasis, comparing to normal liver of the same patients. For these binding assays, samples from 9 patients were used (20, 21, 22, 25, 26, 27, 28, 31, 32), with the same conditions described for the cell lines.
In the first experiments, due to the low cell numbers, related to the set up phase of the purification procedure, the binding of only some clones was evaluated. In general, 3 assays have been performed for each sample. […] It is interesting to note that, in the experiments on fresh cells, binding increases are much higher than in those performed with the cultured cell lines.

For “ARPGLRS (listed as Homo sapiens) [SEQ ID NO. 1]”, the “binding of phage clone to primary hepatic metastasis cells, summary over samples” value is recorded as “worked on all the samples”.
Same read-out and setting: the result for “GIYRLRS ((6)..(6) May be fused with GST; listed as Homo sapiens) [SEQ ID NO. 6]” reads “worked on all the samples”; that for “GVYSLRS (listed as Homo sapiens) [SEQ ID NO. 7]”, “worked on all the samples”.
Same read-out and setting: next, “LRPGLRS (listed as Homo sapiens) [SEQ ID NO. 3]”: “worked on all the samples”.
As for “MRYALRS (listed as Homo sapiens) [SEQ ID NO. 2]”, the “binding of phage clone to primary hepatic metastasis cells” value runs as follows: (patient P#27) “negative”; (patient P#28) “negative”.
